Measured values: patent publication US20250366474A1, “USE OF 4,5-DIMETHYLTHIAZOLE IN PROMOTING PLANT GROWTH” (HUAZHONG AGRICULTURAL UNIVERSITY, priority 2024, published 2025)

Legend:
rice seedlings [1] = assay: 4,5-dimethylthiazole seed soaking: rice seedling dry matter mass and chlorophyll content; type: in vivo, rice (Heliangyou 332); details: for Root System Biomass / Shoot Part Biomass / Total Biomass / Total Chlorophyll Content: 30 days of seedling cultivation; for Total Chlorophyll Content: leaves; for Root System Relative Value / Shoot Part Relative Value / Total Chlorophyll Content Relative Value / Total Relative Value: 30 days, vs distilled water soaking
Description: 4,5-dimethylthiazole of different weights were dissolved in distilled water to obtain seed soaking agents. Taking seed soaking with distilled water as a control, four seed soaking concentrations (0, 50, 100 and 200 mg/L) were set. Plump and healthy rice seeds (Heliangyou 332) were selected and sterilized with 0.5% sodium hypochlorite for 30 min, and then each seed soaking agent was added in a mass ratio of the seed soaking agent to seed of 1:20. The seeds were soaked in darkness under 28-30° C. condition for 48 h until radicle emergence. The seed soaking solutions were changed every 12 h. Rice substrate soil was loaded 2 cm away from a seedling tray opening, gently compacted, and watered with pure water to be wet. A rice seedling nursery substrate was “rice seedling nursery substrate” purchased from Guangzhou Shengsheng Agriculture Co., Ltd., with main ingredients including peat, vermiculite and yellow mud. Two seeds were sowed in each hole on a substrate surface, covered with the substrate soil again to the seedling tray opening, and watered to be wet. After 30 days of seedling cultivation, nine rice samples were taken from each treatment, divided into shoot parts and root system, which were dried and then weighed; and leaves were taken from another nine rice plants to measure chlorophyll content. […] Regarding the biomass of the shoot parts and the chlorophyll content, the seed soaking concentration 50 mg/L rendered the best effect (Table 2).

rice seedlings [2] = assay: 4,5-dimethylthiazole root drenching: rice seedling dry matter mass and chlorophyll content; type: in vivo; details: for Root System Biomass / Shoot Part Biomass / Total Biomass / Total Chlorophyll Content: 30 days of seedling cultivation; for Total Chlorophyll Content: leaves; for Root System Relative Value / Shoot Part Relative Value / Total Chlorophyll Content Relative Value / Total Relative Value: 30 days, vs Control 0 mg/L
Description: Five root irrigation solution concentrations (0, 20, 50, 100 and 200 mg/L) and three types of root drenching frequency (2, 4, and 6 times) were set. 4,5-dimethylthiazole of different mass was dissolved in distilled water to obtain root irrigation solutions at different concentrations. After normal rice seed soaking and accelerated germination, rice substrate soil was loaded 2 cm away from a seedling tray opening, gently compacted, and watered with pure water to be wet. A rice seedling nursery substrate was “rice seedling nursery substrate” purchased from Guangzhou Shengsheng Agriculture Co., Ltd., with main ingredients including peat, vermiculite and yellow mud. Two seeds were sowed in each hole on a substrate surface, covered with the substrate soil again to the seedling tray opening, and watered to be wet. Three days after the rice seedling emergence, the root irrigation solutions at different concentrations was applied once every five days, until there was a water layer of 5 mm on a surface of the substrate. Each treatment was applied with a consistent amount. The drenching was conducted during cooler evening hours to minimize evaporation. After 30 days of seedling cultivation, nine rice samples were taken from each treatment, divided into shoot parts and root system, which were dried and then weighed; and leaves were taken from another nine rice plants to measure chlorophyll content.

[3] = root drenching 2 Times, 20 mg/L
[4] = root drenching 2 Times, 50 mg/L
[5] = root drenching 2 Times, 100 mg/L
[6] = root drenching 2 Times, 200 mg/L
[7] = root drenching 4 Times, 20 mg/L
[8] = root drenching 4 Times, 50 mg/L
[9] = root drenching 4 Times, 100 mg/L
[10] = root drenching 4 Times, 200 mg/L
[11] = root drenching 6 Times, 20 mg/L
[12] = root drenching 6 Times, 50 mg/L
[13] = root drenching 6 Times, 100 mg/L
[14] = root drenching 6 Times, 200 mg/L

Cc1ncsc1C [4,5-dimethylthiazole]
Root System Biomass (rice seedlings [1]; seed soaking 50 mg/L): 8.3 mg/plant
Shoot Part Biomass (rice seedlings [1]; seed soaking 50 mg/L): 80.7 mg/plant
Total Biomass (rice seedlings [1]; seed soaking 50 mg/L): 89.1 mg/plant
Total Chlorophyll Content (rice seedlings [1]; seed soaking 50 mg/L): 4.08 mg/g
Root System Relative Value (rice seedlings [1]; seed soaking 50 mg/L): 52.6%
Shoot Part Relative Value (rice seedlings [1]; seed soaking 50 mg/L): 32.3%
Total Chlorophyll Content Relative Value (rice seedlings [1]; seed soaking 50 mg/L): 9.3%
Total Relative Value (rice seedlings [1]; seed soaking 50 mg/L): 34.0%
Root System Biomass (rice seedlings [1]; seed soaking 100 mg/L): 8.6 mg/plant
Shoot Part Biomass (rice seedlings [1]; seed soaking 100 mg/L): 78.4 mg/plant
Total Biomass (rice seedlings [1]; seed soaking 100 mg/L): 87.1 mg/plant
Total Chlorophyll Content (rice seedlings [1]; seed soaking 100 mg/L): 3.98 mg/g
Root System Relative Value (rice seedlings [1]; seed soaking 100 mg/L): 58.2%
Shoot Part Relative Value (rice seedlings [1]; seed soaking 100 mg/L): 28.5%
Total Chlorophyll Content Relative Value (rice seedlings [1]; seed soaking 100 mg/L): 6.7%
Total Relative Value (rice seedlings [1]; seed soaking 100 mg/L): 31.0%
Root System Biomass (rice seedlings [1]; seed soaking 200 mg/L): 7.8 mg/plant
Shoot Part Biomass (rice seedlings [1]; seed soaking 200 mg/L): 81.1 mg/plant
Total Biomass (rice seedlings [1]; seed soaking 200 mg/L): 88.9 mg/plant
Total Chlorophyll Content (rice seedlings [1]; seed soaking 200 mg/L): 3.99 mg/g
Root System Relative Value (rice seedlings [1]; seed soaking 200 mg/L): 42.9%
Shoot Part Relative Value (rice seedlings [1]; seed soaking 200 mg/L): 32.9%
Total Chlorophyll Content Relative Value (rice seedlings [1]; seed soaking 200 mg/L): 7.0%
Total Relative Value (rice seedlings [1]; seed soaking 200 mg/L): 33.7%
effect on biomass of the shoot parts and chlorophyll content, comparison of seed soaking concentrations (rice seedlings [1]; seed soaking concentration 50 mg/L): best effect
Root System Biomass (rice seedlings [2]; [3]): 7.5 mg/plant
Shoot Part Biomass (rice seedlings [2]; [3]): 82.9 mg/plant
Total Biomass (rice seedlings [2]; [3]): 90.4 mg/plant
Total Chlorophyll Content (rice seedlings [2]; [3]): 4.77 mg/g
Root System Relative Value (rice seedlings [2]; [3]): 36.8%
Shoot Part Relative Value (rice seedlings [2]; [3]): 35.9%
Total Chlorophyll Content Relative Value (rice seedlings [2]; [3]): 27.8%
Total Relative Value (rice seedlings [2]; [3]): 36.0%
Root System Biomass (rice seedlings [2]; [4]): 8.0 mg/plant
Shoot Part Biomass (rice seedlings [2]; [4]): 79.8 mg/plant
Total Biomass (rice seedlings [2]; [4]): 87.9 mg/plant
Total Chlorophyll Content (rice seedlings [2]; [4]): 4.29 mg/g
Root System Relative Value (rice seedlings [2]; [4]): 46.7%
Shoot Part Relative Value (rice seedlings [2]; [4]): 30.8%
Total Chlorophyll Content Relative Value (rice seedlings [2]; [4]): 15.0%
Total Relative Value (rice seedlings [2]; [4]): 32.1%
Root System Biomass (rice seedlings [2]; [5]): 8.3 mg/plant
Shoot Part Biomass (rice seedlings [2]; [5]): 76.3 mg/plant
Total Biomass (rice seedlings [2]; [5]): 84.6 mg/plant
Total Chlorophyll Content (rice seedlings [2]; [5]): 3.82 mg/g
Root System Relative Value (rice seedlings [2]; [5]): 52.2%
Shoot Part Relative Value (rice seedlings [2]; [5]): 25.0%
Total Chlorophyll Content Relative Value (rice seedlings [2]; [5]): 2.5%
Total Relative Value (rice seedlings [2]; [5]): 27.2%
Root System Biomass (rice seedlings [2]; [6]): 6.3 mg/plant
Shoot Part Biomass (rice seedlings [2]; [6]): 62.9 mg/plant
Total Biomass (rice seedlings [2]; [6]): 69.2 mg/plant
Total Chlorophyll Content (rice seedlings [2]; [6]): 4.51 mg/g
Root System Relative Value (rice seedlings [2]; [6]): 15.6%
Shoot Part Relative Value (rice seedlings [2]; [6]): 3.1%
Total Chlorophyll Content Relative Value (rice seedlings [2]; [6]): 20.8%
Total Relative Value (rice seedlings [2]; [6]): 4.1%
Root System Biomass (rice seedlings [2]; [7]): 7.0 mg/plant
Shoot Part Biomass (rice seedlings [2]; [7]): 74.5 mg/plant
Total Biomass (rice seedlings [2]; [7]): 81.5 mg/plant
Total Chlorophyll Content (rice seedlings [2]; [7]): 4.15 mg/g
Root System Relative Value (rice seedlings [2]; [7]): 27.7%
Shoot Part Relative Value (rice seedlings [2]; [7]): 22.1%
Total Chlorophyll Content Relative Value (rice seedlings [2]; [7]): 11.2%
Total Relative Value (rice seedlings [2]; [7]): 22.6%
Root System Biomass (rice seedlings [2]; [8]): 8.0 mg/plant
Shoot Part Biomass (rice seedlings [2]; [8]): 79.9 mg/plant
Total Biomass (rice seedlings [2]; [8]): 87.9 mg/plant
Total Chlorophyll Content (rice seedlings [2]; [8]): 4.09 mg/g
Root System Relative Value (rice seedlings [2]; [8]): 46.3%
Shoot Part Relative Value (rice seedlings [2]; [8]): 30.9%
Total Chlorophyll Content Relative Value (rice seedlings [2]; [8]): 9.8%
Total Relative Value (rice seedlings [2]; [8]): 32.2%
Root System Biomass (rice seedlings [2]; [9]): 7.7 mg/plant
Shoot Part Biomass (rice seedlings [2]; [9]): 79.6 mg/plant
Total Biomass (rice seedlings [2]; [9]): 87.3 mg/plant
Total Chlorophyll Content (rice seedlings [2]; [9]): 3.82 mg/g
Root System Relative Value (rice seedlings [2]; [9]): 41.6%
Shoot Part Relative Value (rice seedlings [2]; [9]): 30.4%
Total Chlorophyll Content Relative Value (rice seedlings [2]; [9]): 2.3%
Total Relative Value (rice seedlings [2]; [9]): 31.3%
Root System Biomass (rice seedlings [2]; [10]): 5.4 mg/plant
Shoot Part Biomass (rice seedlings [2]; [10]): 70.1 mg/plant
Total Biomass (rice seedlings [2]; [10]): 75.5 mg/plant
Total Chlorophyll Content (rice seedlings [2]; [10]): 3.89 mg/g
Root System Relative Value (rice seedlings [2]; [10]): −0.7%
Shoot Part Relative Value (rice seedlings [2]; [10]): 14.8%
Total Chlorophyll Content Relative Value (rice seedlings [2]; [10]): 4.2%
Total Relative Value (rice seedlings [2]; [10]): 13.6%
Root System Biomass (rice seedlings [2]; [11]): 8.6 mg/plant
Shoot Part Biomass (rice seedlings [2]; [11]): 82.7 mg/plant
Total Biomass (rice seedlings [2]; [11]): 91.3 mg/plant
Total Chlorophyll Content (rice seedlings [2]; [11]): 4.03 mg/g
Root System Relative Value (rice seedlings [2]; [11]): 51.8%
Shoot Part Relative Value (rice seedlings [2]; [11]): 35.4%
Total Chlorophyll Content Relative Value (rice seedlings [2]; [11]): 8.1%
Total Relative Value (rice seedlings [2]; [11]): 37.3%
Root System Biomass (rice seedlings [2]; [12]): 7.9 mg/plant
Shoot Part Biomass (rice seedlings [2]; [12]): 85.8 mg/plant
Total Biomass (rice seedlings [2]; [12]): 93.7 mg/plant
Total Chlorophyll Content (rice seedlings [2]; [12]): 4.32 mg/g
Root System Relative Value (rice seedlings [2]; [12]): 44.7%
Shoot Part Relative Value (rice seedlings [2]; [12]): 40.6%
Total Chlorophyll Content Relative Value (rice seedlings [2]; [12]): 15.9%
Total Relative Value (rice seedlings [2]; [12]): 41.0%
Root System Biomass (rice seedlings [2]; [13]): 7.1 mg/plant
Shoot Part Biomass (rice seedlings [2]; [13]): 74.7 mg/plant
Total Biomass (rice seedlings [2]; [13]): 81.8 mg/plant
Total Chlorophyll Content (rice seedlings [2]; [13]): 4.20 mg/g
Root System Relative Value (rice seedlings [2]; [13]): 30.2%
Shoot Part Relative Value (rice seedlings [2]; [13]): 22.4%
Total Chlorophyll Content Relative Value (rice seedlings [2]; [13]): 12.7%
Total Relative Value (rice seedlings [2]; [13]): 23.1%
Root System Biomass (rice seedlings [2]; [14]): 7.1 mg/plant
Shoot Part Biomass (rice seedlings [2]; [14]): 63.5 mg/plant
Total Biomass (rice seedlings [2]; [14]): 70.6 mg/plant
Total Chlorophyll Content (rice seedlings [2]; [14]): 3.79 mg/g
Root System Relative Value (rice seedlings [2]; [14]): 29.7%
Shoot Part Relative Value (rice seedlings [2]; [14]): 4.1%
Total Chlorophyll Content Relative Value (rice seedlings [2]; [14]): 1.6%
Total Relative Value (rice seedlings [2]; [14]): 6.2%
